According to ChEMBL document CHEMBL4765362, “Thirty Years of HDAC Inhibitors: 2020 Insight and Hindsight” (J Med Chem, 2020):
One block for each compound: values may come before it.

Experiments:
Histone deacetylase 9 = Histone deacetylase 9 (Homo sapiens, UniProt Q9UKV0); assay: Inhibition of C-terminal His-tagged human HDAC9 (604 to 1066 residues) expressed in baculovirus infected sf9 cells using acetyl-lysine tripeptide as substrate preincubated for 10 mins followed by substrate addition and shaken for 5 secs and measured over 30 mins
[1] = molecular target: Histone deacetylase 3/Nuclear receptor corepressor 2 (HDAC3/NCoR2) (Homo sapiens, UniProt O15379); assay: Inhibition of His-tagged GST-fused human HDAC3/NcoR2 expressed in sf9 cells using acetyl-lysine tripeptide as substrate preincubated for 10 mins followed by substrate addition and shaken for 5 secs and measured over 30 mins
Histone deacetylase 4 = Histone deacetylase 4 (Homo sapiens, UniProt P56524); assay: Inhibition of human HDAC4 expressed in baculovirus infected sf9 cells using acetyl-lysine tripeptide as substrate preincubated for 10 mins followed by substrate addition and shaken for 5 secs and measured over 30 mins
[2] = molecular target: T1, Protein deacetylase HDAC6 (Homo sapiens, UniProt Q9UBN7); assay: Inhibition of HDAC6 (unknown origin) using acetyl-lysine tripeptide as substrate preincubated for 10 mins followed by substrate addition and shaken for 5 secs and measured over 30 mins
T1 sequence (Q9UBN7 whole entry): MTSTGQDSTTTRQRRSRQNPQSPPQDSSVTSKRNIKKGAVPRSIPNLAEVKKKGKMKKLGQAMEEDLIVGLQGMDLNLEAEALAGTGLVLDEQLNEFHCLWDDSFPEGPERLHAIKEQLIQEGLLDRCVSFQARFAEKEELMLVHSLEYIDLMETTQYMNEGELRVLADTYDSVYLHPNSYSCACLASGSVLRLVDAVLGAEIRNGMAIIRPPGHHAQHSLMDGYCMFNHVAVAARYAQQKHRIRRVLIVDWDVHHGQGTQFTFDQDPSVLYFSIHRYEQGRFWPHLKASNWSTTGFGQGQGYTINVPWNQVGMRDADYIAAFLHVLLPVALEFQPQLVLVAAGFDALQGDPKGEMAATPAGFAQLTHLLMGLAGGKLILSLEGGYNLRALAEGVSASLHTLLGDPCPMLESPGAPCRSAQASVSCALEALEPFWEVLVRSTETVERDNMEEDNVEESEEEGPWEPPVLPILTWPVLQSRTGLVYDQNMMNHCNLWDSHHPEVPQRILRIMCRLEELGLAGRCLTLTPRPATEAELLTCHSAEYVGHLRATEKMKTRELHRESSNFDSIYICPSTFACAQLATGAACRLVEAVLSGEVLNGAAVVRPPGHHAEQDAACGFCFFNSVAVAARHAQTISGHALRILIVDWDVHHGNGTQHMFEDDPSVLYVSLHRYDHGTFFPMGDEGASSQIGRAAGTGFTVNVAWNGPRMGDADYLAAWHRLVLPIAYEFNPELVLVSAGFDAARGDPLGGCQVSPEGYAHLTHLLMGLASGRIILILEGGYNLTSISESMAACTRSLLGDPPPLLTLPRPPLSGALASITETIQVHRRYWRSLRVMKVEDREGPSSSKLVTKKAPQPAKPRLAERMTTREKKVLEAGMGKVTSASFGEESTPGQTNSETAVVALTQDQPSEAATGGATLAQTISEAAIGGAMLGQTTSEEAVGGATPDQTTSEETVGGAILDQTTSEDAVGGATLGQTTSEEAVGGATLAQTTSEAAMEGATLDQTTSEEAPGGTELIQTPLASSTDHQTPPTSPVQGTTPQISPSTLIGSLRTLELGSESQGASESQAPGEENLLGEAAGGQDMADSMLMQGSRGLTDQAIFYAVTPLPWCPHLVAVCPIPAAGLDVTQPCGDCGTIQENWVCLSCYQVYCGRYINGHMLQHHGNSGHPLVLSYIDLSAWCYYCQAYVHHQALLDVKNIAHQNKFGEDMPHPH

Histone deacetylase 7 = molecular target: T2, Histone deacetylase 7 (Homo sapiens, UniProt Q8WUI4); assay: Inhibition of human N-terminal GST-tagged HDAC7 (518 to end residues) expressed in baculovirus infected sf9 cells using acetyl-lysine tripeptide as substrate preincubated for 10 mins followed by substrate addition and shaken for 5 secs and measured over 30 mins
T2 sequence (Q8WUI4 whole entry): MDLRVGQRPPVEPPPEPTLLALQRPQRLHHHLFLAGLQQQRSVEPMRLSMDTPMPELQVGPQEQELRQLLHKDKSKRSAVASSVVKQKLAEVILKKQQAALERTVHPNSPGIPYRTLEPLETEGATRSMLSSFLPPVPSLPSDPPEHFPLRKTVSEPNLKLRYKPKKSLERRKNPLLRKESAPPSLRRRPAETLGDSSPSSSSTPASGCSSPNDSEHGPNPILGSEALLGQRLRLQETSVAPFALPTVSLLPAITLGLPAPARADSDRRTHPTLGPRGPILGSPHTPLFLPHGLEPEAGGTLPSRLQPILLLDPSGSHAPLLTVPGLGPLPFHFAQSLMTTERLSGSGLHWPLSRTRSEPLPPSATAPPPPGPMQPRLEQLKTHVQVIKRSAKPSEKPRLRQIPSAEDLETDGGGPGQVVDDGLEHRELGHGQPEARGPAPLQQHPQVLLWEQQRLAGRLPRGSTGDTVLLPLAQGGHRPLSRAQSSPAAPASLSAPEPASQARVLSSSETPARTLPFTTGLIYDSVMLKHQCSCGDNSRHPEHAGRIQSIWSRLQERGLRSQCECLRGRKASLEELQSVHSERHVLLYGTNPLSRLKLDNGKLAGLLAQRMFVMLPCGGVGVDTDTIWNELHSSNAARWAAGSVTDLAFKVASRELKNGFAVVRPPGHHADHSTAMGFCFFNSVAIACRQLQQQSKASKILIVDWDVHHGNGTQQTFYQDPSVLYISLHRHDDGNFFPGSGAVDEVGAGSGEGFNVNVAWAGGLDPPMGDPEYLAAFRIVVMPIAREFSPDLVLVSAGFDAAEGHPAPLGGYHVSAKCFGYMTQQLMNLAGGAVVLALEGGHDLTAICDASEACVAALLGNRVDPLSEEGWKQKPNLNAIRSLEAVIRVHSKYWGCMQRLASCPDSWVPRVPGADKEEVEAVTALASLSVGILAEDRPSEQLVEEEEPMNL

Histone deacetylase 5 = Histone deacetylase 5 (Homo sapiens, UniProt Q9UQL6); assay: Inhibition of human HDAC5 using acetyl-lysine tripeptide as substrate preincubated for 10 mins followed by substrate addition and shaken for 5 secs and measured over 30 mins
Histone deacetylase 2 = Histone deacetylase 2 (Homo sapiens, UniProt Q92769); assay: Inhibition of human HDAC2 expressed in Sf9 cells using acetyl-lysine tripeptide as substrate preincubated for 10 mins followed by substrate addition and shaken for 5 secs and measured over 30 mins
Histone deacetylase 8 = molecular target: T3, Histone deacetylase 8 (Homo sapiens, UniProt Q9BY41); assay: Inhibition of recombinant human C-terminal His-tagged HDAC8 expressed in baculovirus infected sf9 cells using acetyl-lysine tripeptide as substrate preincubated for 10 mins followed by substrate addition and shaken for 5 secs and measured over 30 mins
T3 sequence (Q9BY41 whole entry): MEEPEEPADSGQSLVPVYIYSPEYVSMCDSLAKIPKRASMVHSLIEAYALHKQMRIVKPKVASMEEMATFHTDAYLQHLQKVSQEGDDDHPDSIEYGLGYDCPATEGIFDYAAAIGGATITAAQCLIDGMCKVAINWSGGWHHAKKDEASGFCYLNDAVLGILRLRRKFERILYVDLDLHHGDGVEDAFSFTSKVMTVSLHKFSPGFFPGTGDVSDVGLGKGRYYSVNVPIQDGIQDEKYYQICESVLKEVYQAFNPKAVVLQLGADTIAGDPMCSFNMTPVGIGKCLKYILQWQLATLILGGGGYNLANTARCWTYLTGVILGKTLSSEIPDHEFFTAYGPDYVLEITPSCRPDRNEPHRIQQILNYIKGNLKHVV

[3] = molecular target: T4, Polyamine deacetylase HDAC10 (Danio rerio, UniProt F1QCV2); assay: Inhibition of zebrafish HDAC10 (2 to 675 residues) expressed in Escherichia coli BL21(DE3) cells using N-acetylputrescine as substrate preincubated for 10 mins followed by substrate and measured after 45 to 60 mins by liquid chromatography-mass spectrometry
T4 sequence (F1QCV2 whole entry): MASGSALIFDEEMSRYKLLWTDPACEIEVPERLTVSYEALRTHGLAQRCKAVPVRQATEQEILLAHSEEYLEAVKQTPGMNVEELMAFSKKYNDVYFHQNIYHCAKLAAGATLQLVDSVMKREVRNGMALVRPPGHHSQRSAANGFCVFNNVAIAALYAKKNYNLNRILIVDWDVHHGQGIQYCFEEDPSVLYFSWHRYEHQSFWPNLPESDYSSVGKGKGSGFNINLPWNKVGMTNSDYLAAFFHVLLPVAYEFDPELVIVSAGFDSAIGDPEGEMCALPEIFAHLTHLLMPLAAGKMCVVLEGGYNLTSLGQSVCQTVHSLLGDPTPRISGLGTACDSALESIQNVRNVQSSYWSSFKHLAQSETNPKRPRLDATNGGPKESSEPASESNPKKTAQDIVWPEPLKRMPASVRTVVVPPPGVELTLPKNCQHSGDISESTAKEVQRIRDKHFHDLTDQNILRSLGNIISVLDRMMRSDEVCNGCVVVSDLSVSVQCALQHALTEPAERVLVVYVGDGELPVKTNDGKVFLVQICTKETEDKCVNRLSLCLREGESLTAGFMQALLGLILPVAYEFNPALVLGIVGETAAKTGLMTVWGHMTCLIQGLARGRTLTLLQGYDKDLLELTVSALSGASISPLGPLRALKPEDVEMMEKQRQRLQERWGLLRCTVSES

[4] = molecular target: T5, Polyamine deacetylase HDAC10 (Homo sapiens, UniProt Q969S8); assay: Inhibition of HDAC10 (unknown origin)
T5 sequence (Q969S8 whole entry): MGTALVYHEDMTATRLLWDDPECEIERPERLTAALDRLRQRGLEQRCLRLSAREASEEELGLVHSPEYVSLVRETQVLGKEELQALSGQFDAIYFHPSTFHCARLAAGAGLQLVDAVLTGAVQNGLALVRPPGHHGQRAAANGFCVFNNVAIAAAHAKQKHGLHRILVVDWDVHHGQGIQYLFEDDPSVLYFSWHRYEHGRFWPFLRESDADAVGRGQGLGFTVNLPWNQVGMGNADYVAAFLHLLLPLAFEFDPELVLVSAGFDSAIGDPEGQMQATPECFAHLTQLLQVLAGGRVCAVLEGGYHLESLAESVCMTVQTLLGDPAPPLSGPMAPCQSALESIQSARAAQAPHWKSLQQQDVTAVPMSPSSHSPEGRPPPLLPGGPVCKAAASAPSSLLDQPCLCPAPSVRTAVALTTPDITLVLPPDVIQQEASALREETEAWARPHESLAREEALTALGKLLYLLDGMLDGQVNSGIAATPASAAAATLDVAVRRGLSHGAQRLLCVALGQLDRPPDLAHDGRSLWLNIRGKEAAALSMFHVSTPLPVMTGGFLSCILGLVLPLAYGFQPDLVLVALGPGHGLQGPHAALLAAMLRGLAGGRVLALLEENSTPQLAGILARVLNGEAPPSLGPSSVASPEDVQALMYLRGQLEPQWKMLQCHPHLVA

Histone deacetylase 11 = molecular target: T6, Histone deacetylase 11 (Homo sapiens, UniProt Q96DB2); assay: Inhibition of HDAC11 (unknown origin)
T6 sequence (Q96DB2 whole entry): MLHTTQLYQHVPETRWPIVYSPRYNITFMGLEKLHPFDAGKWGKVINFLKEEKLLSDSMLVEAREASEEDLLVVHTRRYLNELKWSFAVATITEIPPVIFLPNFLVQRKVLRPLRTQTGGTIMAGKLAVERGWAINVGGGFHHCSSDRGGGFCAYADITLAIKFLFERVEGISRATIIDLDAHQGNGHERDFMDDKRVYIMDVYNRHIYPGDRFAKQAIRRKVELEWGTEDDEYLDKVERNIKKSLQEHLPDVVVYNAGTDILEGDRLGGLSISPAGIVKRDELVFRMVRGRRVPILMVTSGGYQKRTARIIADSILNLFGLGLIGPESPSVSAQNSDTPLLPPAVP

Chain of Histone deacetylase 2 (Q92769 whole entry): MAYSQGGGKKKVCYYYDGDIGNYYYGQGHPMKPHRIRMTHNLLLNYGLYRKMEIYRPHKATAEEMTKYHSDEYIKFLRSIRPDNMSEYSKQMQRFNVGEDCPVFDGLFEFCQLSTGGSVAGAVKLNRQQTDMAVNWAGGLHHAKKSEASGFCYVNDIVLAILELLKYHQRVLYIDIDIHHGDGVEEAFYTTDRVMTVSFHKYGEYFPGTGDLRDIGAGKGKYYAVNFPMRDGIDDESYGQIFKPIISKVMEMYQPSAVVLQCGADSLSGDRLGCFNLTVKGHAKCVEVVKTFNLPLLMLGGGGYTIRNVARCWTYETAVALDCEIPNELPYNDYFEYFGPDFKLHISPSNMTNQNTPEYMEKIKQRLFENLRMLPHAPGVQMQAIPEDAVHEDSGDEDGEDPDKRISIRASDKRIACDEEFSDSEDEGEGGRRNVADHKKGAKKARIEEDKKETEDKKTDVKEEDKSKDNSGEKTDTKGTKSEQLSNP
Chain of Histone deacetylase 4 (P56524 whole entry): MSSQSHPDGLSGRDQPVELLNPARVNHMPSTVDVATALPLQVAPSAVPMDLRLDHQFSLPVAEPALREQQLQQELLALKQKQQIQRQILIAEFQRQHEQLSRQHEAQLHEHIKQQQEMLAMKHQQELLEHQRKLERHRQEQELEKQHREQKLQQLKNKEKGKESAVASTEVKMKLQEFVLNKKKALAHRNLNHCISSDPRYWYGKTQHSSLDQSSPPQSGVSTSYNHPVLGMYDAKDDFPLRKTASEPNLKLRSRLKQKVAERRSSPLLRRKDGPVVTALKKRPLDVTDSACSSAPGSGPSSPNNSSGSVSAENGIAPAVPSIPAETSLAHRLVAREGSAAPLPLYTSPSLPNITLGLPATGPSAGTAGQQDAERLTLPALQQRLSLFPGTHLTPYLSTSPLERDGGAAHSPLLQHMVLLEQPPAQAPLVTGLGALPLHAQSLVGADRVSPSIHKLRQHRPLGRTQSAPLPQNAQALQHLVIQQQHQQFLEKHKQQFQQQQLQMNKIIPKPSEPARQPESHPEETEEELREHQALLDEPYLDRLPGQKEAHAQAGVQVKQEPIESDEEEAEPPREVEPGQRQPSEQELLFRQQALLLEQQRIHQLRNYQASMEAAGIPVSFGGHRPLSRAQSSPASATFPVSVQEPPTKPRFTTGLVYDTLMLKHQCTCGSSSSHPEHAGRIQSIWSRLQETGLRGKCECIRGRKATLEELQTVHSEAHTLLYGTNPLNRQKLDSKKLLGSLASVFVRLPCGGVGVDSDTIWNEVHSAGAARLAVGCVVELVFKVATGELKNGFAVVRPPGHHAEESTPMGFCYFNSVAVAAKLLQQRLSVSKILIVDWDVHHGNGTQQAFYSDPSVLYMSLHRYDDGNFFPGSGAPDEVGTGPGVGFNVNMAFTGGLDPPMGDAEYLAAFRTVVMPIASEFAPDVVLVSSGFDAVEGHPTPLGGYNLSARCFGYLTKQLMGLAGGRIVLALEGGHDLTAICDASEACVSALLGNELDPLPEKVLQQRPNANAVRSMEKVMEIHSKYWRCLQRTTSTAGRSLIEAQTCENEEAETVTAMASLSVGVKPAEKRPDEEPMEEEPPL
Chain of Histone deacetylase 9 (Q9UKV0 whole entry, the tested form may be a part): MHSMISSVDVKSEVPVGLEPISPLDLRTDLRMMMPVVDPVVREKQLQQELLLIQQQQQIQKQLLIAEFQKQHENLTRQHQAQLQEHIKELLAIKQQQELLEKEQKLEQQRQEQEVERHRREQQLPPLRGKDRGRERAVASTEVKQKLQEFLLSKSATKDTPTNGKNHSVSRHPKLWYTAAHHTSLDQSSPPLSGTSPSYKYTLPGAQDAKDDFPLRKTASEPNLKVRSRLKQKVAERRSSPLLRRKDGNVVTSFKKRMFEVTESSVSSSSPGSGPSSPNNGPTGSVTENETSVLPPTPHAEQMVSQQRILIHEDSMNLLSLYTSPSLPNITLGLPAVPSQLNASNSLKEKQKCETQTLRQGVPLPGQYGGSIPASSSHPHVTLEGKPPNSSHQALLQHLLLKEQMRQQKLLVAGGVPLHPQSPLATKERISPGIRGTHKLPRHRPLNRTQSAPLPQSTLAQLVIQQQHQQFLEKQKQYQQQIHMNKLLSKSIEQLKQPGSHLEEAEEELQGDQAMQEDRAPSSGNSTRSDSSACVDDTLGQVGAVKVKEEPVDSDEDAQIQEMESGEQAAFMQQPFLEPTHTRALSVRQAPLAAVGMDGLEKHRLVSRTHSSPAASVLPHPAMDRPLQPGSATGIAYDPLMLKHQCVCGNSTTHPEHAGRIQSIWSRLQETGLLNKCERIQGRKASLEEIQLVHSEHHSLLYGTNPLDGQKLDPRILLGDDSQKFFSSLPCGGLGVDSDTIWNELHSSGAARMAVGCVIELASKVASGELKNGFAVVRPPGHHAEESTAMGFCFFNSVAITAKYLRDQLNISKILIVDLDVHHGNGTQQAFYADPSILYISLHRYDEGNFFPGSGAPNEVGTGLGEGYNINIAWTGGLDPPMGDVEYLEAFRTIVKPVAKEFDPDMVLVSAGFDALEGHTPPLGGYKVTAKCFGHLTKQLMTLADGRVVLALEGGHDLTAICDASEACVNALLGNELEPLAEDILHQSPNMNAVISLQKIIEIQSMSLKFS
Chain of Histone deacetylase 5 (Q9UQL6 whole entry): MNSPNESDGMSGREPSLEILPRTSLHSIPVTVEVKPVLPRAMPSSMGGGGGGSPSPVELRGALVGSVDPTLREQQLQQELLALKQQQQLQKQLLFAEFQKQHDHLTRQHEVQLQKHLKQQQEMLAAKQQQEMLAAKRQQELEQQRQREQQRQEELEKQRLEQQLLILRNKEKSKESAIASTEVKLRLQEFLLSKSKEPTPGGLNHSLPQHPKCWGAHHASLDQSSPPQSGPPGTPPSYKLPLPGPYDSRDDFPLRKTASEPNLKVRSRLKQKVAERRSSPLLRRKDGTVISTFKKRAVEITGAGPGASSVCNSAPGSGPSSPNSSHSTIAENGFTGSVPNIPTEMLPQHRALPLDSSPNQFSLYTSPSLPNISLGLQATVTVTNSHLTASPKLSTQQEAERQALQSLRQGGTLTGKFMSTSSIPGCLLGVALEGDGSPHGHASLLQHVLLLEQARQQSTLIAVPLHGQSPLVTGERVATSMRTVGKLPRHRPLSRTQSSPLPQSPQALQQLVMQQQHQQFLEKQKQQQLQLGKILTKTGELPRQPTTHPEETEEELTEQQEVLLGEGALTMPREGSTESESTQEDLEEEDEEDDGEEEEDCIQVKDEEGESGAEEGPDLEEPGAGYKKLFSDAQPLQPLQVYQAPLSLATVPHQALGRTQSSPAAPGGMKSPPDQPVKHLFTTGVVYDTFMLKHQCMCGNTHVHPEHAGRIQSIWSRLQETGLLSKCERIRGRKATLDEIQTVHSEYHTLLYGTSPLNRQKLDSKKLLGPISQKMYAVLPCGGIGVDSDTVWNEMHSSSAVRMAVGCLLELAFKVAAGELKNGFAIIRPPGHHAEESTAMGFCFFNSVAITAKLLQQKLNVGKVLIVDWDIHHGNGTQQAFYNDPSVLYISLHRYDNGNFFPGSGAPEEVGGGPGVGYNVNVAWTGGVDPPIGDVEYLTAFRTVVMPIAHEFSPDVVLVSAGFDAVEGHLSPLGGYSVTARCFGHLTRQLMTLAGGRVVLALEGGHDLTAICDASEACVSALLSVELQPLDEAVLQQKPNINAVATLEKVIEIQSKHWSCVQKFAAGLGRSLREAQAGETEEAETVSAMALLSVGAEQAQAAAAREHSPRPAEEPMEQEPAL

Compound: Nc1ccc(-c2cccs2)cc1NC(=O)c1ccc2nc(N3CCNCC3)ccc2c1
- IC50 (Histone deacetylase 9): > 20000 nM
- IC50 [1]: 1000 nM
- IC50 (Histone deacetylase 4): > 20000 nM
- IC50 [2]: > 20000 nM
- IC50 (Histone deacetylase 7): > 20000 nM
- IC50 (Histone deacetylase 5): > 20000 nM
- IC50 (Histone deacetylase 2): 26 nM
- IC50 (Histone deacetylase 8): > 20000 nM

- IC50 [3]: 120 nM
Compound: NCCCNCCCCCC(=O)NO

- IC50 [4]: 100 nM
- IC50 (Histone deacetylase 11): 400 nM
Compound: Nc1cc(F)ccc1NC(=O)c1ccc(CNC(=O)/C=C/c2cccnc2)cc1 [TUCIDINOSTAT]
